EP1009418B1, “ROBINIA PSEUDOACACIA LECTIN AND ITS USES” (priority 1997, dated 1999)

Columns and labels:
[1] = tested on: small intestine, jejunum and ileum; test: Protection of rats from high-dose 5-FU by oral pre-dosing with A4 or B4 homotetramer lectin: gut dry weights and visual inspection; assay type: in vivo, Hooded Lister (Rowett Strain) rats
Method: (§1) Thirty five young male Hooded Lister (Rowett Strain) rats (19 days old weighing 30-40g) were housed individually in grid bottom cages. The animals were fed a high quality semi-synthetic diet containing 10% lactalbumin protein (Table 1).
(§2) Diet and water was freely available at all times except on day 19 when the amount of food offered was restricted to 10g/rat. At 19 days, rat weights were 100-104g.
(§3) Animals not pre-dosed with RPA were administered with 1 ml 0.9% saline by gavage.
(§4) 300mg of 5-fluorouracil was stirred in 14ml of distilled water. 1M NaOH was added slowly until the 5-FU had dissolved. The solution was made up to a final volume of 20 ml. The final pH of the solution was 8.3. A dose of 150 mg/kg body weight was administered to the animal by intraperitoneal injection. Immediately after the injection, the rats were offered 15g of the control diet.
Five groups, each consisting of 5 rats were fed on a standard diet containing lactalbumin (Table 1) and were fed on the following dietary regime (Table 4); Table 4.
One group of animals (Treatment 1) were fed standard diet throughout. The second group were gavaged daily with saline for three days and then injected with 5-FU at 150 mg/kg body weight (Treatment 2). The remaining two groups (Treatment 3 & 4) of animals were gavaged daily for three days with either A4 or B4 RPA homotetramer for three days and then injected with 150 mg/kg body weight 5-FU. After injection with 5-FU, Treatment groups 2-4 were returned to standard diet for four days ad lib. The animals were sacrificed 7 days after the start of the experiment, the carcass dissected and the small intestine, jejunum and ileum dry weights recorded.
Dry weights normalised to 100g dry body weight.

[2] = tested on: small intestine, jejunum and ileum; test: Protection of rats from high-dose 5-FU by oral pre-dosing with RPA: gut wet weights and visual inspection; assay type: in vivo, Hooded Lister (Rowett Strain) rats
Method: as §1, §2
Animals pre-dosed with RPA were given the equivalent of 25, 50 or 100 mg/kg body weight RPA (Table 2) in 0.9% saline by gavage. The animals were pre-dosed for three consecutive days prior to the 5-FU injection.
as §3, §4
Five groups, each consisting of 5 rats were fed on the standard diet containing lactalbumin (Table 1). One group of rats were fed 8 g per day of standard diet for three days and then injected with 5-FU at 150 mg/kg body weight (Table 2).
The rats were pair fed for the first three days and then fed ab libitum post 5-FU injection.
Three groups of animals were gavaged daily with 25, 50 or 100 mg/kg/day body weight Robinia pseudoacacia lectin (RPA) for three days and then injected with 150 mg/kg 5-FU on the following day. The remaining group of animals were pre-dosed with 100 mg/kg body weight RPA and then returned to lactalbumin containing diet without injection of 5-FU. After injection with 5-FU, the animals were returned to lactalbumin containing diet ad lib. The animals were sacrificed 7 days after the start of the experiment, the carcass dissected and the small intestine, jejunum and ileum wet weights recorded.

[3] = dry weight normalised to 100g dry body weight, saline gavage 3d, 5-FU 150 mg/kg, no lectin
[4] = wet weight, lactalbumin diet 3d, 5-FU 150 mg/kg i.p., no RPA

## O=c1[nH]cc(F)c(=O)[nH]1 [5-FU, 5-fluorouracil]
[1]; 5-FU 150 mg/kg (treatments 1 & 2)
  tissue dry weight versus the untreated control: significant reduction in tissue dry weight
[1]; 5-FU alone
  Visual inspection of the small intestine, jejunum and ileum: extensively damaged mucosal
[1]; [3]
  Ileum: 405 mg
  Jejunum: 336 mg
  Small intestine: 1789 mg
[2]; 5-FU alone (treatment 1)
  Visual inspection of the small intestine, jejunum and ileum: no, or a very thin mucosal layer
[2]; [4]
  Ileum: 1.0 g
  Jejunum: 1.0 g
  Small intestine: 5.62 g
